Experimental data reported in US20080255162A1, “Pyrrolyl Substituted Pyrido[2,3-D]Pyrimidin-7-Ones and Derivatives Thereof as Therapeutic Agents” (WARNER-LAMBERT COMPANY LLC, priority 2004, published 2008).

molecular target: T1, PI3Kγ (purified recombinant p101/p110γ protein) (Homo sapiens, UniProt P48736); experiment: PI3Kγ In Vitro Kinase Assay; type: biochemical; conditions: final ATP 20 μM, 25 μM PIP2, G protein β1/γ2 subunits, 20 minutes at room temperature
T1 construct: HA; made in house; host or cells: Spodoptera frugiperda Sf9 cells (baculovirus co-infection)
T1 sequence (P48736 whole entry, species assumed): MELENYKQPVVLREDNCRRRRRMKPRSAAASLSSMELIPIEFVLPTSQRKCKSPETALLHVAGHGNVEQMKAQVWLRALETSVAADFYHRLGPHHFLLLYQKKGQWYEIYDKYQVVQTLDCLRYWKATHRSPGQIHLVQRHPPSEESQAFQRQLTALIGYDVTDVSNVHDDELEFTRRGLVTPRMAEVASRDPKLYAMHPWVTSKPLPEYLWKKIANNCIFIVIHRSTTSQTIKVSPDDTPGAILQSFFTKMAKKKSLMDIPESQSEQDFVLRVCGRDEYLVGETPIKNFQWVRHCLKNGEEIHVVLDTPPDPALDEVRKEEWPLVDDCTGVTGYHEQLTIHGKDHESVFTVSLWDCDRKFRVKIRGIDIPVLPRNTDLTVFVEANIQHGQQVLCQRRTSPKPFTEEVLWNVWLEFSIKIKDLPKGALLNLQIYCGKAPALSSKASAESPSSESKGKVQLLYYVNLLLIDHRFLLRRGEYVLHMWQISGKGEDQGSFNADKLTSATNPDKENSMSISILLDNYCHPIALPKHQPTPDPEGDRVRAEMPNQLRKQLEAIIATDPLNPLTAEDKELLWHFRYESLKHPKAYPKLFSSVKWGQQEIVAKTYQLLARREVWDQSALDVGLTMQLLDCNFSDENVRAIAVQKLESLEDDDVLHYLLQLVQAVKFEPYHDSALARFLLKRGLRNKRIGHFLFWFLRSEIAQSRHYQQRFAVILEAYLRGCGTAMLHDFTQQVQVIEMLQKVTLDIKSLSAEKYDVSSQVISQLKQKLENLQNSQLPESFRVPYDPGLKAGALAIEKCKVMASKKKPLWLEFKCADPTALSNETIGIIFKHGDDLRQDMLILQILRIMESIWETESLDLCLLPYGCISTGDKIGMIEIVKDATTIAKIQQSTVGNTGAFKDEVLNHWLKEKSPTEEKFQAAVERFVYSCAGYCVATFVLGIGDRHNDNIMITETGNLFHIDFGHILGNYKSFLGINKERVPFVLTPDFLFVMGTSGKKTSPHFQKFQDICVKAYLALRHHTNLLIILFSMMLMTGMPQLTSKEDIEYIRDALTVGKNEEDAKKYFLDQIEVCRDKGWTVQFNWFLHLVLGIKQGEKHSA
T1 sequence (Q8WYR1 whole entry partner, species assumed): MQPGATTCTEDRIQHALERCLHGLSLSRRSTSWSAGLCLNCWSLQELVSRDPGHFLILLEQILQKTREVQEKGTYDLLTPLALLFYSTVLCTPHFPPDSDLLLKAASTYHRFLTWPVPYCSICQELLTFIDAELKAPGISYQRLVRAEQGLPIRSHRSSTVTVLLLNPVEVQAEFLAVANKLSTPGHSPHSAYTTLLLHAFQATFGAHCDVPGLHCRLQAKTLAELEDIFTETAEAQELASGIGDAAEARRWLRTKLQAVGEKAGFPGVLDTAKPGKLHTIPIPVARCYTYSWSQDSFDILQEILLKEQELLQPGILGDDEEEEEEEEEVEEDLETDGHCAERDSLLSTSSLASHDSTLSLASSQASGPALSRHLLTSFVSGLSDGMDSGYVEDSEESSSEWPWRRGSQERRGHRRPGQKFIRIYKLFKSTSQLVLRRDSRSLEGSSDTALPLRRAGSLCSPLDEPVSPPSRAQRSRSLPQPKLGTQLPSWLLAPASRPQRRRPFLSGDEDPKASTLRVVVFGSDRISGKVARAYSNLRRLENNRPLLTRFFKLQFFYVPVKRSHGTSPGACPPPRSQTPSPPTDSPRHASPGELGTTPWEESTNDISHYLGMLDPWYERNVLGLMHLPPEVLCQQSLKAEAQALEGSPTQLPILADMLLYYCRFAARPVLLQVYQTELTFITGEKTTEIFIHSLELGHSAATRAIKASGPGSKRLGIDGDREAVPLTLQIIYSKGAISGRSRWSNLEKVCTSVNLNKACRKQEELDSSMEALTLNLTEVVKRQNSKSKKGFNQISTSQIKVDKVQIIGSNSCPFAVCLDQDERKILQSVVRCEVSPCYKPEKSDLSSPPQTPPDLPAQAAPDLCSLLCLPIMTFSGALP
Protocol: Spodtera frugiperda cells, grown in ESF921 media, were co-infected with baculovirus expressing a glu-tagged p101 and baculovirus expressing an HA-tagged p110γ, at a 3:1 ratio of p101 baculovirus to p110γ baculovirus. Sf9 cells were grown to 1×10^7 total cells/mL in 10 L bioreactors and harvested 48-72 hours post infection. Samples of infected cells were then tested for expression of p101/p110γ PI3 kinase by immunoprecipitation and Western Blot analysis methods (see below).
To purify PI3Kγ, 4 volumes of room temperature hypotonic lysis buffer (1 mM MgCl2, 1 mM DTT, 5 mM EGTA, 1 mM Pefabloc, 0.5 μM aprotinin, 5 μM leupeptin, 2 μM pepstatin, 5 μM E64, pH 8) per gram of cell paste, was poured onto frozen cell pellets with stirring, then lysed in a nitrogen “bomb” at 400 psi (599HC T316, Parr Instrument Co, Moline, Ill.). NaCl was added to 150 mM, and sodium cholate was added to 1% and mixed for another 45 minutes. The lysates were clarified by centrifugation for 25 minutes at 14,000 rpm. The lysates were then loaded over anti-glu-linked Protein-G Sepaharose beads (Covance Research Products, Richmond, Calif.) using 20 mL resin/50 g cell paste. The column was washed with 15 volumes of wash buffer (1 mM DTT, 0.2 mM EGTA, 1 mM Pefabloc, 0.5 μM aprotinin, 5 μM leupeptin, 2 μM pepstatin, 5 μM E64, 150 mM NaCl, 1% sodium cholate, pH 8). PI3Kγ was eluted with 6 column volumes of wash buffer that contain 100 μg/mL of a peptide that competes for binding of the glu tag. The column fractions with the eluted protein (determined by taking OD280 readings) were collected and dialyzed in 0.2 mM EGTA, 1 mM DTT, 1 mM Pefabloc, 5 μM leupeptin, 0.5% sodium cholate, 150 mM NaCl, and 50% glycerol, pH 8. The fractions were stored at −80° C. until further use.
Spodtera frugiperda cells were coinfected with baculovirus expressing a glu-tagged G protein β1 and baculovirus expressing a G protein β2, at a 1:1 ratio of glu-tagged G protein β1 baculovirus to G protein β2 baculovirus. Sf9 cells are grown in 10 L bioreactors and harvested 48-72 hours post infection. Samples of infected cells were tested for G protein β1/β2 expression by Western Blot analysis, as described below. Cell lysates were homogenized and loaded onto a column of glu-tagged beads as in Biological Example 1 and competed off the column with a glu peptide and processed as described in Biological Example 1.
The inhibitory properties of the compounds in Table 1 were assayed in an in vitro PI3K assay. In a 96-well polypropylene plate, each well was spotted with 2 μL of 50 times the desired final concentration of compound in DMSO. Purified recombinant p101/p110γ protein (0.03 μg; ˜2.7 nM) and G protein β1/γ2 subunits (0.09 μg; ˜57.7 nM) for each reaction was combined in the assay buffer (30 mM HEPES, 100 mM NaCl, 1 mM EGTA, and 1 mM DTT). ATP and [γ-^32P-ATP] (0.09 μCi) were added to this mixture so that the final ATP concentration in the reaction was 20 μM. Lipid micelles were formed by sonicating phosphatidylinositol-4,5-diphosphate (PIP2), phosphatidylethanolamine (PE), and Na-cholate in the assay buffer for 10 minutes, adding MgCl2 and incubating on ice for 20 minutes, for final concentrations of 25 μM PIP2, 300 μM PE, 0.02% Na-cholate, and 10 mM MgCl2 in the reaction. The reactions were started by adding equal volumes lipid and enzyme mixture in a total volume of 50 μL, allowed to run for 20 minutes at room temperature, and stopped with 100 μL 75 mM H3PO4. The lipid product was transferred to a glass fiber filter plate and washed with 75 mM H3PO4 several times. The presence of radioactive lipid product (PIP3) was measured by adding Wallac Optiphase mix to each well and counting in a Wallac 1450 Trilux plate reader (PerkinElmer Life Sciences Inc., Boston, Mass. 02118). The IC50 for each compound tested is reported in μM in the Table 2: […]

Row | SMILES | IC50 [nM]
1 | COC(=O)c1cc(Nc2nc(C)c3ccc(=O)n(C4CC4)c3n2)cn1C [Example 3, 4-(8-Cyclopropyl-4-methyl-7-oxo-7,8-dihydro-pyrido[2,3-d]pyrimidin-2-ylamino)-1-methyl-1H-pyrrole-2-carboxylic acid methyl ester] | 18
2 | Cc1nc(Nc2cc(C(=O)O)n(C)c2)nc2c1ccc(=O)n2C1CCC1 [Example 21, 4-(8-Cyclobutyl-4-methyl-7-oxo-7,8-dihydro-pyrido[2,3-d]pyrimidin-2-ylamino)-1-methyl-1H-pyrrole-2-carboxylic acid] | 55
3 | Cc1nc(Nc2ccn(CC(=O)O)c2)nc2c1ccc(=O)n2C1CCCCCC1 [Example 23, [3-(8-Cycloheptyl-4-methyl-7-oxo-7,8-dihydro-pyrido[2,3-d]pyrimidin-2-ylamino)-pyrrol-1-yl]-acetic acid] | 1080
4 | COC(=O)c1cc(Nc2nc(C)c3ccc(=O)n(C4CCCCCC4)c3n2)cn1C [Example 1, 4-(8-Cycloheptyl-4-methyl-7-oxo-7,8-dihydro-pyrido[2,3-d]pyrimidin-2-ylamino)-1-methyl-1H-pyrrole-2-carboxylic acid methyl ester] | 25
5 | Cc1nc(Nc2cc(C(=O)O)n(C(C)c3ccccc3)c2)nc2c1cc(F)c(=O)n2C1CCCC1 (stereo not shown) [Example 28, 4-(8-Cyclopentyl-6-fluoro-4-methyl-7-oxo-7,8-dihydro-pyrido[2,3-d]pyrimidin-2-ylamino)-1-(1-phenyl-ethyl)-1H-pyrrole-2-carboxylic acid] | 15
6 | COc1ccc(Cn2c(=O)c(C)cc3c(C)nc(Nc4cc(C(=O)O)n(C)c4)nc32)cc1 [Example 36, 4-[8-(4-Methoxy-benzyl)-4,6-dimethyl-7-oxo-7,8-dihydro-pyrido[2,3-d]pyrimidin-2-ylamino]-1-methyl-1H-pyrrole-2-carboxylic acid] | 47
7 | Cc1nc(Nc2cc(C(=O)O)n(C)c2)nc2c1cc(F)c(=O)n2C1CCOCC1 [Example 25, 4-[6-Fluoro-4-methyl-7-oxo-8-(tetrahydro-pyran-4-yl)-7,8-dihydro-pyrido[2,3-d]pyrimidin-2-ylamino]-1-methyl-1H-pyrrole-2-carboxylic acid] | 40
8 | Cc1nc(Nc2cc(C(=O)O)n(C)c2)nc2c1ccc(=O)n2C1CCCCC1 [Example 38, 4-[8-Cyclohexyl-4-methyl-7-oxo-7,8-dihydro-pyrido[2,3-d]pyrimidin-2-ylamino]-1-methyl-1H-pyrrole-2-carboxylic acid] | 21
9 | CCOC(=O)c1cc(Nc2nc(C)c3ccc(=O)n(C4CCCCCC4)c3n2)cn1Cc1ccccc1 [Example 7, 1-Benzyl-4-(8-cycloheptyl-4-methyl-7-oxo-7,8-dihydro-pyrido[2,3-d]pyrimidin-2-ylamino)-1H-pyrrole-2-carboxylic acid ethyl ester] | 36
10 | COC(=O)c1cc(Nc2nc(C)c3ccc(=O)n(C4CCOCC4)c3n2)cn1C [Example 5, 1-Methyl-4-[4-methyl-7-oxo-8-(tetrahydro-pyran-4-yl)-7,8-dihydro-pyrido[2,3-d]pyrimidin-2-ylamino]-1H-pyrrole-2-carboxylic acid methyl ester] | 24
11 | COC(=O)c1cc(Nc2nc(C)c3cc(Cl)c(=O)n(C4CCCC4)c3n2)cn1C [Example 29, 4-(6-Chloro-8-cyclopentyl-4-methyl-7-oxo-7,8-dihydro-pyrido[2,3-d]pyrimidin-2-ylamino)-1-methyl-1H-pyrrole-2-carboxylic acid methyl ester] | 6
12 | COC1CCC(n2c(=O)c(F)cc3c(C)nc(Nc4cc(C(=O)O)n(C)c4)nc32)CC1 (stereo not shown) [Example 27, 4-[6-Fluoro-8-(4-methoxy-cyclohexyl)-4-methyl-7-oxo-7,8-dihydro-pyrido[2,3-d]pyrimidin-2-ylamino]-1-methyl-1H-pyrrole-2-carboxylic acid] | 19
13 | COC(=O)c1cc(Nc2nc(C)c3ccc(=O)n(CCC4CC4)c3n2)cn1C [Example 8, 4-[8-(2-Cyclopropyl-ethyl)-4-methyl-7-oxo-7,8-dihydro-pyrido[2,3-d]pyrimidin-2-ylamino]-1-methyl-1H-pyrrole-2-carboxylic acid methyl ester] | 12
14 | CCn1c(=O)c(Cl)cc2c(C)nc(Nc3cc(C(=O)OC)n(C)c3)nc21 [Example 30, 4-(6-Chloro-8-ethyl-4-methyl-7-oxo-7,8-dihydro-pyrido[2,3-d]pyrimidin-2-ylamino)-1-methyl-1H-pyrrole-2-carboxylic acid methyl ester] | 2
15 | COCCn1c(=O)c(Br)cc2c(C)nc(Nc3cc(C(=O)O)n(C)c3)nc21 [Example 32, 4-[6-Bromo-8-(2-methoxy-ethyl)-4-methyl-7-oxo-7,8-dihydro-pyrido[2,3-d]pyrimidin-2-ylamino]-1-methyl-1H-pyrrole-2-carboxylic acid] | 5
16 | CCOC(=O)c1cc(Nc2nc(C)c3ccc(=O)n(C)c3n2)cn1C(C)c1ccccc1 (stereo not shown) [Example 2, 4-(4,8-Dimethyl-7-oxo-7,8-dihydro-pyrido[2,3-d]pyrimidin-2-ylamino)-1-(1-phenyl-ethyl)-1H-pyrrole-2-carboxylic acid ethyl ester] | 63
17 | COCCn1c(=O)c(-c2cccc(OCc3ccccc3)c2)cc2c(C)nc(Nc3cc(C(=O)OC)n(C)c3)nc21 [Example 34, 4-[6-(3-Benzyloxy-phenyl)-8-(2-methoxy-ethyl)-4-methyl-7-oxo-7,8-dihydro-pyrido[2,3-d]pyrimidin-2-ylamino]-1-methyl-1H-pyrrole-2-carboxylic acid methyl ester] | 305
18 | COC(=O)c1cc(Nc2nc(C)c3ccc(=O)n(C4CCCCC4)c3n2)cn1C [Example 6, 4-(8-Cyclohexyl-4-methyl-7-oxo-7,8-dihydro-pyrido[2,3-d]pyrimidin-2-ylamino)-1-methyl-1H-pyrrole-2-carboxylic acid methyl ester] | 4
19 | COC(=O)c1cc(Nc2nc(C)c3cc(F)c(=O)n(C4CCCC4)c3n2)cn1C [Example 9, 4-(8-Cyclopentyl-6-fluoro-4-methyl-7-oxo-7,8-dihydro-pyrido[2,3-d]pyrimidin-2-ylamino)-1-methyl-1H-pyrrole-2-carboxylic acid methyl ester] | 12
20 | COC(=O)c1cc(Nc2nc(C)c3ccc(=O)n(C4CCC4)c3n2)cn1C [Example 4, 4-(8-Cyclobutyl-4-methyl-7-oxo-7,8-dihydro-pyrido[2,3-d]pyrimidin-2-ylamino)-1-methyl-1H-pyrrole-2-carboxylic acid methyl ester] | 13
21 | COC(=O)c1cc(Nc2nc(C)c3cc(F)c(=O)n(C4CCC(OC)CC4)c3n2)cn1C (stereo not shown) [Example 11, 4-[6-Fluoro-8-(4-methoxy-cyclohexyl)-4-methyl-7-oxo-7,8-dihydro-pyrido[2,3-d]pyrimidin-2-ylamino]-1-methyl-1H-pyrrole-2-carboxylic acid methyl ester] | 5
22 | CCOC(=O)c1cc(Nc2nc(C)c3cc(F)c(=O)n(C4CCCC4)c3n2)cn1Cc1cccnc1 [Example 12, 4-(8-Cyclopentyl-6-fluoro-4-methyl-7-oxo-7,8-dihydro-pyrido[2,3-d]pyrimidin-2-ylamino)-1-pyridin-3-ylmethyl-1H-pyrrole-2-carboxylic acid ethyl ester] | 4
